Laboratory results taken from patent publication US6720346B2, “Thiazole benzamide derivatives and pharmaceutical compositions for inhibiting cell proliferation” (Agouron Pharmaceuticals, Inc., priority 2001, dated 2004).
Structures can show the parent of a compound that is named as a salt.

What was measured:
[1] = target: T1, CDK2/cyclin A (Homo sapiens, UniProt P24941); assay: Inhibition of CDK2/cyclin A retinoblastoma kinase activity (Ki; % inhibition); assay type: biochemical; details: for Ki: apparent Ki, CDK2/cyclin A, Rb substrate
T1 construct: made in house; host or cells: CDK2: insect cells (baculovirus); cyclin A: E. coli
Method in brief: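 Apparent Ki values came from fitting concentration-dependent activity data to competitive (or competitive tight-binding) models, and % inhibition from single 30 nM screens of library compounds. Activity was measured as ³²P/³³P incorporation from 25 μM ATP into an Rb substrate by 10 or 19 nM CDK2/delta cyclin A at 30 °C over 60–75 min, pH 7.4.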

[2] = target: T2, human CDK4/cyclin D3 (Homo sapiens, UniProt P11802); assay: Inhibition of CDK4/cyclin D retinoblastoma kinase activity (Ki; % inhibition); assay type: biochemical; details: for Ki: apparent Ki, CDK4/cyclin D3, Rb substrate
T2 construct: made in house; host or cells: insect cells co-infected with baculovirus vectors
T2 sequence (P11802 whole entry): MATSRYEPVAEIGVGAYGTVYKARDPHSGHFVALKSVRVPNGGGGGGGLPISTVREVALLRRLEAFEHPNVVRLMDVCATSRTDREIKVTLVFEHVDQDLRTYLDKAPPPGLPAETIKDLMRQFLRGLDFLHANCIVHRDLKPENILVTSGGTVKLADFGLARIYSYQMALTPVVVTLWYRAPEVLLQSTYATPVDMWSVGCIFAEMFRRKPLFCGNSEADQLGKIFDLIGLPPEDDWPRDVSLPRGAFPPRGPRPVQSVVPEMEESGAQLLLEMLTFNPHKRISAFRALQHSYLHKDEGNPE
T2 sequence (P30281 1-264 partner limits assumed): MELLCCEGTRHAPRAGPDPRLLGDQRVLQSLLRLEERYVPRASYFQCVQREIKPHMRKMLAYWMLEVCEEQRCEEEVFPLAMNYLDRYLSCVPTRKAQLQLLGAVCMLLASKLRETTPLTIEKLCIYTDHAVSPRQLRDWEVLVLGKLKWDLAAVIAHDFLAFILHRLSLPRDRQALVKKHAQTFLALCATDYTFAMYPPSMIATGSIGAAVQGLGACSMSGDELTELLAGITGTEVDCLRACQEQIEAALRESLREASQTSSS
Method in brief: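 Radiometric filter-binding read-out: Rb residues 386-928 phosphorylated by 5 nM CDK4/cyclin D3(1-264) from baculovirus-infected insect cells, 25 μM ATP, HEPES pH 7.4, 30 °C. Run 20 min, or 60 min for tight-binding inhibitors. Screening at 30 nM theoretical compound; apparent Ki by competitive-inhibition fitting.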

[3] = tested on: HCT-116 cell line; assay: Inhibition of cell growth, MTT tetrazolium salt assay; assay type: cell-based; details: for IC50: Homo sapiens, HCT-116, 120 h, MTT, three to five days
Method in brief: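 Cells in McCoy's 5A medium were given 4 h before compound addition in 0.5% (v/v) DMSO, then incubated 3–5 days at 37 °C, 5% CO2. After 4 h with 0.2 mg/mL MTT, DMSO-solubilized formazan was read at 540 nm; 50% and 90% growth-inhibitory concentrations came from semi-log plots against vehicle controls.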

[4] = HCT-116 cells, 0.25 μM compound

Structure (SMILES)	Ki [1] [nM]	Ki [2] [nM]	IC50 [3] [nM]	CDK2 % Inhibition at 0.03 μM ([1]; at 0.03 μM) [%]	CDK4 % Inhibition at 0.03 μM ([2]; at 0.03 μM) [%]	HCT-116 % Inhibition at 0.25 μM ([3]; HCT-116, at 0.25 μM) [%]	other results
CC1(C)CC(CNC(=O)c2ccc(Nc3nc(N)c(C(=O)c4c(F)cccc4F)s3)cc2)C(C)(C)N1 (stereo not drawn) [Example A56, 4-[4-Amino-5-(2,6-difluoro-benzoyl)-thiazol-2-ylamino]-N-(2,2,5,5-tetramethyl-pyrrolidin-3R,S-ylmethyl)-benzamide Dihydrochloride Salt]	67	8	4500	–	–	–	–
C[C@@H](CN(C)C)NC(=O)c1ccc(Nc2nc(N)c(C(=O)c3c(F)cccc3F)s2)cc1 [Example A41]	230	35	180	–	–	–	–
CN1CCC[C@@]1(C)CNC(=O)c1ccc(Nc2nc(N)c(C(=O)c3c(F)cccc3F)s2)cc1 [Example A74, 4-{4-Amino-5-(2,6-difluoro-benzoyl)-thiazol-2-ylamino}-N-(1,2-dimethyl-pyrrolidin-2S-ylmethyl)-benzamide Trifluoroacetic Acid Salt]	9.8	380	1900	–	–	–	–
Nc1nc(Nc2ccc(C(=O)NCCN3CCCC3)cc2)sc1C(=O)c1c(F)cccc1F [Example A35, 4-[4-Amino-5-(2,6-difluoro-benzoyl)-thiazol-2-ylamino]-N-(2-pyrrolidin-1-yl-ethyl)-benzamide]	54	6	120	–	–	–	–
C#CCN(C)C(=O)c1ccc(Nc2nc(N)c(C(=O)c3c(F)cccc3F)s2)cc1 [Example G282]	–	–	–	–	–	–	CDK2 % Inhibition at 0.03 μM ([1]; 0.03 μM compound): −14%; CDK4 % Inhibition at 0.03 μM ([2]; 0.03 μM compound): 6%; HCT-116 % Inhibition at 0.1 μM ([3]; HCT-116 cells, 0.1 μM compound): 1%; HCT-116 % Inhibition at 0.25 μM [3, 4]: 56%
Nc1nc(Nc2ccc(C(=O)NCC(O)CO)cc2)sc1C(=O)c1c(Cl)cccc1Cl (stereo not drawn) [Example B3, 4-[4-Amino-5-(2,6-dichloro-benzoyl)-thiazol-2-ylamino]-N-(2,3-dihydroxy-propyl)-benzamide]	66	8	18000	–	–	–	–
Cn1ccnc1CNC(=O)c1ccc(Nc2nc(N)c(C(=O)c3c(F)cccc3F)s2)cc1 [Example A50, 4-[4-Amino-5-(2,6-difluoro-benzoyl)-thiazol-2-ylamino]-N-(1-methyl-1H-imidazol-2-ylmethyl)-benzamide Hydrochloride Salt]	20	15	170	–	–	–	–
N#CCc1ccc(NC(=O)c2ccc(Nc3nc(N)c(C(=O)c4c(F)cccc4F)s3)cc2)cc1 [Example G321]	–	–	–	–	–	–	CDK2 % Inhibition at 0.03 μM ([1]; 0.03 μM compound): 1%; CDK4 % Inhibition at 0.03 μM ([2]; 0.03 μM compound): 19%; HCT-116 % Inhibition at 0.1 μM ([3]; HCT-116 cells, 0.1 μM compound): 11%; HCT-116 % Inhibition at 0.25 μM [3, 4]: 51%
Nc1nc(Nc2ccc(C(=O)NCc3ccc(OC(F)(F)F)cc3)cc2)sc1C(=O)c1c(F)cccc1F [Example G208]	–	–	–	–	–	–	CDK2 % Inhibition at 0.03 μM ([1]; 0.03 μM compound): 36%; CDK4 % Inhibition at 0.03 μM ([2]; 0.03 μM compound): 36%; HCT-116 % Inhibition at 0.1 μM ([3]; HCT-116 cells, 0.1 μM compound): 11%; HCT-116 % Inhibition at 0.25 μM [3, 4]: 56%
Nc1nc(Nc2ccc(C(=O)NCCN3CC=CC3)cc2)sc1C(=O)c1c(F)cccc1F [Example A45, 4-[4-Amino-5-(2,6-difluoro-benzoyl)-thiazol-2-ylamino]-N-[2-(2,5-dihydro-pyrrol-1-yl)-ethyl]-benzamide Dihydrochloride Salt]	48	7	86	–	–	–	–
CN(CCC1OCCO1)C(=O)c1ccc(Nc2nc(N)c(C(=O)c3c(F)cccc3F)s2)cc1 [Example G387]	–	–	–	–	–	–	CDK2 % Inhibition at 0.03 μM ([1]; 0.03 μM compound): 10%; CDK4 % Inhibition at 0.03 μM ([2]; 0.03 μM compound): 11%; HCT-116 % Inhibition at 0.1 μM ([3]; HCT-116 cells, 0.1 μM compound): 32%; HCT-116 % Inhibition at 0.25 μM [3, 4]: 52%

Continued, in another order:

Ki [1] [nM]	Ki [2] [nM]	IC50 [3] [nM]	CDK2 % Inhibition at 0.03 μM ([1]; at 0.03 μM) [%]	CDK4 % Inhibition at 0.03 μM ([2]; at 0.03 μM) [%]	Structure (SMILES)	HCT-116 % Inhibition at 0.25 μM ([3]; HCT-116, at 0.25 μM) [%]	other results
–	–	–	2	25	CC(C)OCCCNC(=O)c1ccc(Nc2nc(N)c(C(=O)c3c(F)cccc3F)s2)cc1 [Example G135]	56	HCT-116 % Inhibition at 0.1 μM ([3]; HCT-116, at 0.1 μM): 0%
–	–	–	9	26	COc1ccc(NC(=O)c2ccc(Nc3nc(N)c(C(=O)c4c(F)cccc4F)s3)cc2)cc1O [Example G14]	50	–
–	–	–	17	19	CN(C)CCN(C)C(=O)c1ccc(Nc2nc(N)c(C(=O)c3c(F)cccc3F)s2)cc1 [Example G57]	51	–
–	–	–	25	3	COc1ccc(NC(=O)c2ccc(Nc3nc(N)c(C(=O)c4c(F)cccc4F)s3)cc2)cc1Cl [Example G59]	53	–
–	–	–	4	16	C#CCCN(CCCC)C(=O)c1ccc(Nc2nc(N)c(C(=O)c3c(F)cccc3F)s2)cc1 [Example G171]	47	HCT-116 % Inhibition at 0.1 μM ([3]; HCT-116, at 0.1 μM): 30%
